What was measured:
Type in all cases: functional
[1] = tested on: NCI-H460; assay: Anticancer activity against human NCI-H460 cells assessed as cell growth at 100 uM after 48 hrs by sulforhodamine B assay; settings: NCI-H460, 48 h, read-out: Activity
[2] = tested on: MCF7; assay: Anticancer activity against human MCF7 cells assessed as cell growth at 100 uM after 48 hrs by sulforhodamine B assay; settings: MCF7, 48 h, read-out: Activity
[3] = tested on: SF-268; assay: Anticancer activity against human SF268 cells assessed as cell growth at 100 uM after 48 hrs by sulforhodamine B assay; settings: SF-268, 48 h, read-out: Activity

Structure (SMILES)	growth at 100 µM [1] [%]	growth at 100 µM [2] [%]	growth at 100 µM [3] [%]
COc1ccc(Oc2nc3cc(N)cc(N)c3nc2-c2ccccc2)cc1OC	118	117	131
COc1ccc(Sc2nc3cc(N)cc(N)c3nc2-c2ccccc2)cc1OC	119	121	136
